Source: patent publication US20060293307A1, “Oxazolidinone derivatives as antimicrobials” (priority 2002, published 2006)
Converted amounts (≈) assume the structure as drawn. Read-outs that look alike come from different tables or passages of the source.

Tests used:
H. influenzae 1745 = assay: MIC against Haemophilus strains; assay type: cell-based; details: Haemophilus influenzae; s. No. 9, H. influenzae 1745; read-out: MIC
M. intracellulare B-78/3 = assay: MIC against MAC strains, agar dilution; assay type: cell-based; details: Mycobacterium intracellulare, B78/3; S. No. 09 Mi-4, M. intracellulare B-78/3; Middle Brook 7H10 + OADC, 37° C., 14-21 days; read-out: MIC
M avium ATCC 700897 = assay: MIC against MAC strains, agar dilution; assay type: cell-based, Mycobacterium avium; details: Mycobacterium avium, ATCC700897; S. No. 05 Ma-6, M avium ATCC 700897; Middle Brook 7H10 + OADC, 37° C., 14-21 days; read-out: MIC
[1] = test system: M. avium intracellulare 356/97; assay: MIC against MAC strains, agar dilution; assay type: cell-based; details: Mycobacterium avium; S. No. 10 Mai-1, M. avium intracellulare 356/97; Middle Brook 7H10 + OADC, 37° C., 14-21 days; read-out: MIC
M. tuberculosis M-66 = assay: MIC against M. tuberculosis strains, agar dilution; assay type: cell-based, Mycobacterium tuberculosis; details: Mycobacterium tuberculosis, M66, S. No. 08 Mt-, Middle Brook 7H10 + OADC, 37° C., 14-21 days, read-out: MIC
M. tuberculosis PC [2] = assay: MIC against M. tuberculosis strains, agar dilution; assay type: cell-based, Mycobacterium tuberculosis; details: Mycobacterium tuberculosis, S. No. 19 Mt-, Middle Brook 7H10 + OADC, 37° C., 14-21 days, read-out: MIC
H. influenzae R = assay: MIC against Haemophilus strains; assay type: cell-based; details: Haemophilus influenzae; s. No. 4, H. influenzae R; read-out: MIC
M. tuberculosis M-168 = assay: MIC against M. tuberculosis strains, agar dilution; assay type: cell-based, Mycobacterium tuberculosis; details: Mycobacterium tuberculosis, M168, S. No. 09 Mt-, Middle Brook 7H10 + OADC, 37° C., 14-21 days, read-out: MIC
E. faecalis 5B (VRE) = assay: MIC, agar incorporation method; assay type: cell-based; details: Enterococcus faecalis; S. No. 19, E. faecalis 5B (VRE); read-out: MIC
H. influenzae P318 = assay: MIC against Haemophilus strains; assay type: cell-based; details: Haemophilus influenzae; s. No. 10, H. influenzae P318; read-out: MIC
M. tuberculosis M-149 = assay: MIC against M. tuberculosis strains, agar dilution; assay type: cell-based, Mycobacterium tuberculosis; details: Mycobacterium tuberculosis, M149, S. No. 15 Mt-, Middle Brook 7H10 + OADC, 37° C., 14-21 days, read-out: MIC
H. influenzae 474 = assay: MIC against Haemophilus strains; assay type: cell-based; details: Haemophilus influenzae; s. No. 11, H. influenzae 474; read-out: MIC
H. influenzae ATCC 49247 = assay: MIC against Haemophilus strains; assay type: cell-based; details: Haemophilus influenzae, ATCC49247; s. No. 2, H. influenzae ATCC 49247; read-out: MIC
M. tuberculosis V-3093 = assay: MIC against M. tuberculosis strains, agar dilution; assay type: cell-based, Mycobacterium tuberculosis; details: Mycobacterium tuberculosis, V3093, S. No. 14 Mt-, Middle Brook 7H10 + OADC, 37° C., 14-21 days, read-out: MIC
M. tuberculosis 50 = assay: MIC against M. tuberculosis strains, agar dilution; assay type: cell-based, Mycobacterium tuberculosis; details: Mycobacterium tuberculosis, S. No. 12 Mt-, Middle Brook 7H10 + OADC, 37° C., 14-21 days, read-out: MIC
M. tuberculosis SGPGI [3] = assay: MIC against M. tuberculosis strains, agar dilution; assay type: cell-based, Mycobacterium tuberculosis; details: Mycobacterium tuberculosis, S. No. 07 Mt-, Middle Brook 7H10 + OADC, 37° C., 14-21 days, read-out: MIC
M. tuberculosis PC [4] = assay: MIC against M. tuberculosis strains, agar dilution; assay type: cell-based, Mycobacterium tuberculosis; details: Mycobacterium tuberculosis, S. No. 20 Mt-, Middle Brook 7H10 + OADC, 37° C., 14-21 days, read-out: MIC
M. tuberculosis PC 4782 = assay: MIC against M. tuberculosis strains, agar dilution; assay type: cell-based, Mycobacterium tuberculosis; details: Mycobacterium tuberculosis, PC4782, S. No. 21 Mt-, Middle Brook 7H10 + OADC, 37° C., 14-21 days, read-out: MIC
[5] = test system: M. intracellulare ATCC 13950; assay: MIC against MAC strains, agar dilution; assay type: cell-based; details: Mycobacterium intracellulare, ATCC13950; S. No. 06 Mi-1, M. intracellulare ATCC 13950; Middle Brook 7H10 + OADC, 37° C., 14-21 days; read-out: MIC
M. tuberculosis SGPGI [6] = assay: MIC against M. tuberculosis strains, agar dilution; assay type: cell-based, Mycobacterium tuberculosis; details: Mycobacterium tuberculosis, S. No. 06 Mt-, Middle Brook 7H10 + OADC, 37° C., 14-21 days, read-out: MIC
M. avium AIIMS = assay: MIC against MAC strains, agar dilution; assay type: cell-based, Mycobacterium avium; details: Mycobacterium avium; S. No. 04 Ma-4, M. avium AIIMS; Middle Brook 7H10 + OADC, 37° C., 14-21 days; read-out: MIC
[7] = test system: M. avium intracellulare 559/97; assay: MIC against MAC strains, agar dilution; assay type: cell-based; details: Mycobacterium avium; S. No. 15 Mai-7, M. avium intracellulare 559/97; Middle Brook 7H10 + OADC, 37° C., 14-21 days; read-out: MIC
M. tuberculosis ATCC = assay: MIC against M. tuberculosis strains, agar dilution; assay type: cell-based, Mycobacterium tuberculosis; details: Mycobacterium tuberculosis, S. No. 01.Mt-, Middle Brook 7H10 + OADC, 37° C., 14-21 days, read-out: MIC
M avium ATCC 25291 = assay: MIC against MAC strains, agar dilution; assay type: cell-based, Mycobacterium avium; details: Mycobacterium avium, ATCC25291; S. No. 02 Ma-2, M avium ATCC 25291; Middle Brook 7H10 + OADC, 37° C., 14-21 days; read-out: MIC
M. tuberculosis SGPGI [8] = assay: MIC against M. tuberculosis strains, agar dilution; assay type: cell-based, Mycobacterium tuberculosis; details: Mycobacterium tuberculosis, S. No. 05 Mt-, Middle Brook 7H10 + OADC, 37° C., 14-21 days, read-out: MIC

## CC(=O)NC[C@H]1CN(c2ccc(N3CCN(c4ccc([N+](=O)[O-])s4)CC3)c(F)c2)C(=O)O1 [Compound No. 1, (S)—N-[[3-[3-Fluoro-4-[4-(5-nitro-2-thienyl)-1-piperazinyl]phenyl]-2-oxo-5-oxazolidinyl]methyl]acetamide]
H. influenzae 1745
  MIC: 16 µg/mL (≈ 34.5 µM)
M. intracellulare B-78/3
  MIC: 0.25 µg/mL
M avium ATCC 700897
  MIC: < 0.123 µg/mL
[1]
  MIC: 0.25 µg/mL
M. tuberculosis M-66
  MIC: > 32 µg/mL
M. tuberculosis PC [2]
  MIC: ≤ 0.125 µg/mL
H. influenzae R
  MIC: 8 µg/mL (≈ 17.3 µM)
M. tuberculosis M-168
  MIC: 0.25 µg/mL
E. faecalis 5B (VRE)
  MIC: 0.25 µg/mL (≈ 0.539 µM)
H. influenzae P318
  MIC: 16 µg/mL (≈ 34.5 µM)
M. tuberculosis M-149
  MIC: 0.25 µg/mL
H. influenzae 474
  MIC: 16 µg/mL (≈ 34.5 µM)
H. influenzae ATCC 49247
  MIC: 8 µg/mL (≈ 17.3 µM)
M. tuberculosis V-3093
  MIC: ≤ 0.125 µg/mL
M. tuberculosis 50
  MIC: 2 µg/mL
M. tuberculosis SGPGI [3]
  MIC: 0.5 µg/mL
M. tuberculosis PC [4]
  MIC: 0.25 µg/mL
M. tuberculosis PC 4782
  MIC: 0.125 µg/mL
[5]
  MIC: 16 µg/mL
M. tuberculosis SGPGI [6]
  MIC: 1 µg/mL
M. avium AIIMS
  MIC: 0.25 µg/mL
[7]
  MIC: 0.25 µg/mL
M. tuberculosis ATCC
  MIC: ≤ 0.125 µg/mL
M avium ATCC 25291
  MIC: 0.25 µg/mL
M. tuberculosis SGPGI [8]
  MIC: 0.25 µg/mL
